# Source: PubChem BioAssay AID1963984 (Molecular Pharmacology Branch, DTP, NCI, 2024)
# Test system: 233499-124-R-J3-PDC spheroids with HUVEC/MSC, viability
# Assay: Anticancer human tumor 233499-124-R-J3-PDC patient-derived colon adenocarcinoma cell line growth inhibition [PI3K]
# Conditions: for IC50: curve of first compound; for viability, T/C: stronger effect = lower value
# Outline: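 We assembled tumor spheroids that included a stromal compartment of HUVEC and MSCs, then exposed them to targeted agents alone and together with PI3K pathway inhibitors. Concentration series descended by half-log from clinically achievable Cmax levels. Viability served as the endpoint.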
# [1] = second compound 0.0316 µM, first compound 0.0316 µM
# [2] = second compound 0.0316 µM, first compound 0.1 µM
# [3] = second compound 0.0316 µM, first compound 0.316 µM
# [4] = second compound 0.0316 µM, first compound 1 µM
# [5] = second compound 0.1 µM, first compound 0.0316 µM
# [6] = second compound 0.1 µM, first compound 0.1 µM
# [7] = second compound 0.1 µM, first compound 0.316 µM
# [8] = second compound 0.1 µM, first compound 1 µM
# [9] = second compound 0.316 µM, first compound 0.0316 µM
# [10] = second compound 0.316 µM, first compound 0.1 µM
# [11] = second compound 0.316 µM, first compound 0.316 µM
# [12] = second compound 0.316 µM, first compound 1 µM
# [13] = second compound 1 µM, first compound 0.0316 µM
# [14] = second compound 1 µM, first compound 0.1 µM
# [15] = second compound 1 µM, first compound 0.316 µM
# [16] = second compound 1 µM, first compound 1 µM
# [17] = second compound 3.16 µM, first compound 0.0316 µM
# [18] = second compound 3.16 µM, first compound 0.1 µM
# [19] = second compound 3.16 µM, first compound 0.316 µM
# [20] = second compound 3.16 µM, first compound 1 µM
# [21] = second compound 10 µM, first compound 0.0316 µM
# [22] = second compound 10 µM, first compound 0.1 µM
# [23] = second compound 10 µM, first compound 0.316 µM
# [24] = second compound 10 µM, first compound 1 µM
# [25] = second compound 0.0316 µM, first compound 0.00316 µM
# [26] = second compound 0.0316 µM, first compound 0.01 µM
# [27] = second compound 0.1 µM, first compound 0.00316 µM
# [28] = second compound 0.1 µM, first compound 0.01 µM
# [29] = second compound 0.316 µM, first compound 0.00316 µM
# [30] = second compound 0.316 µM, first compound 0.01 µM
# [31] = second compound 1 µM, first compound 0.00316 µM
# [32] = second compound 1 µM, first compound 0.01 µM
# [33] = second compound 3.16 µM, first compound 0.00316 µM
# [34] = second compound 3.16 µM, first compound 0.01 µM
# [35] = second compound 10 µM, first compound 0.00316 µM
# [36] = second compound 10 µM, first compound 0.01 µM
# 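Further: spheroids exposed to agents for seven days before readout.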
# 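Wherever viability, T/C is given: percent viability relative to DMSO vehicle control taken as 100%.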
smiles,measurement,setting,value
CC1(C)CCC(CN2CCN(c3ccc(C(=O)NS(=O)(=O)c4ccc(NCC5CCOCC5)c([N+](=O)[O-])c4)c(Oc4cnc5[nH]ccc5c4)c3)CC2)=C(c2ccc(Cl)cc2)C1 + Cc1nc(NC(=O)N2CCCC2C(N)=O)sc1-c1ccnc(C(C)(C)C(F)(F)F)c1,IC50,second compound 0.0316 µM,6180 nM
same,IC50,second compound 0.1 µM,5470 nM
same,IC50,second compound 0.316 µM,5380 nM
same,IC50,second compound 1 µM,4330 nM
same,IC50,second compound 3.16 µM,2610 nM
same,IC50,second compound 10 µM,< 31.6 nM
same,"viability, T/C",[1],110%
same,"viability, T/C",[2],104%
same,"viability, T/C",[3],107%
same,"viability, T/C",[4],115%
same,"viability, T/C","second compound 0.0316 µM, first compound 3.16 µM",106%
same,"viability, T/C","second compound 0.0316 µM, first compound 10 µM",10.1%
same,"viability, T/C",[5],112%
same,"viability, T/C",[6],98.1%
same,"viability, T/C",[7],66.5%
same,"viability, T/C",[8],109%
same,"viability, T/C","second compound 0.1 µM, first compound 3.16 µM",93%
same,"viability, T/C","second compound 0.1 µM, first compound 10 µM",2.57%
same,"viability, T/C",[9],99.9%
same,"viability, T/C",[10],89.3%
same,"viability, T/C",[11],76%
same,"viability, T/C",[12],88.3%
same,"viability, T/C","second compound 0.316 µM, first compound 3.16 µM",88.9%
same,"viability, T/C","second compound 0.316 µM, first compound 10 µM",5.24%
same,"viability, T/C",[13],97.6%
same,"viability, T/C",[14],73.7%
same,"viability, T/C",[15],80.8%
same,"viability, T/C",[16],82.8%
same,"viability, T/C","second compound 1 µM, first compound 3.16 µM",67%
same,"viability, T/C","second compound 1 µM, first compound 10 µM",4.35%
same,"viability, T/C",[17],61.9%
same,"viability, T/C",[18],51.9%
same,"viability, T/C",[19],61.8%
same,"viability, T/C",[20],62.4%
same,"viability, T/C","second compound 3.16 µM, first compound 3.16 µM",48.1%
same,"viability, T/C","second compound 3.16 µM, first compound 10 µM",1.21%
same,"viability, T/C",[21],32.1%
same,"viability, T/C",[22],26.4%
same,"viability, T/C",[23],22.6%
same,"viability, T/C",[24],31.1%
same,"viability, T/C","second compound 10 µM, first compound 3.16 µM",9.66%
same,"viability, T/C","second compound 10 µM, first compound 10 µM",2.29%
CC(=O)c1c(C)c2cnc(Nc3ccc(N4CCNCC4)cn3)nc2n(C2CCCC2)c1=O + Cc1nc(NC(=O)N2CCCC2C(N)=O)sc1-c1ccnc(C(C)(C)C(F)(F)F)c1,IC50,second compound 0.0316 µM,> 100 nM
same,IC50,second compound 0.1 µM,> 100 nM
same,IC50,second compound 0.316 µM,65.9 nM
same,IC50,second compound 1 µM,58.2 nM
same,IC50,second compound 3.16 µM,42 nM
same,IC50,second compound 10 µM,< 0.316 nM
same,"viability, T/C","second compound 0.0316 µM, first compound 0.000316 µM",98.6%
same,"viability, T/C","second compound 0.0316 µM, first compound 0.001 µM",93.2%
same,"viability, T/C",[25],65.5%
same,"viability, T/C",[26],79.9%
same,"viability, T/C",[1],99.6%
same,"viability, T/C",[2],79.1%
same,"viability, T/C","second compound 0.1 µM, first compound 0.000316 µM",90.2%
same,"viability, T/C","second compound 0.1 µM, first compound 0.001 µM",90.2%
same,"viability, T/C",[27],74.7%
same,"viability, T/C",[28],98%
same,"viability, T/C",[5],83%
same,"viability, T/C",[6],54.5%
same,"viability, T/C","second compound 0.316 µM, first compound 0.000316 µM",77.7%
same,"viability, T/C","second compound 0.316 µM, first compound 0.001 µM",89.7%
same,"viability, T/C",[29],86.6%
same,"viability, T/C",[30],75%
same,"viability, T/C",[9],58.5%
same,"viability, T/C",[10],45.3%
same,"viability, T/C","second compound 1 µM, first compound 0.000316 µM",79.5%
same,"viability, T/C","second compound 1 µM, first compound 0.001 µM",67.9%
same,"viability, T/C",[31],80.6%
same,"viability, T/C",[32],70%
same,"viability, T/C",[13],74.9%
same,"viability, T/C",[14],28.3%
same,"viability, T/C","second compound 3.16 µM, first compound 0.000316 µM",53.3%
same,"viability, T/C","second compound 3.16 µM, first compound 0.001 µM",57.2%
same,"viability, T/C",[33],76.4%
same,"viability, T/C",[34],37.5%
same,"viability, T/C",[17],61.8%
same,"viability, T/C",[18],28.2%
same,"viability, T/C","second compound 10 µM, first compound 0.000316 µM",27.8%
same,"viability, T/C","second compound 10 µM, first compound 0.001 µM",26.9%
same,"viability, T/C",[35],27.5%
same,"viability, T/C",[36],34.6%
same,"viability, T/C",[21],36.9%
same,"viability, T/C",[22],28%
CCN1CCN(Cc2ccc(Nc3ncc(F)c(-c4cc(F)c5nc(C)n(C(C)C)c5c4)n3)nc2)CC1 + CC(Nc1ncnc2nc[nH]c12)c1cc2cccc(Cl)c2c(=O)n1-c1ccccc1,IC50,second compound 0.0316 µM,916 nM
same,IC50,second compound 0.1 µM,832 nM
same,IC50,second compound 0.316 µM,788 nM
same,IC50,second compound 1 µM,963 nM
same,IC50,second compound 3.16 µM,214 nM
same,IC50,second compound 10 µM,193 nM
same,"viability, T/C",[25],102%
same,"viability, T/C",[26],93.5%
same,"viability, T/C",[1],83.2%
same,"viability, T/C",[2],70.1%
same,"viability, T/C",[3],61.5%
same,"viability, T/C",[4],48.5%
same,"viability, T/C",[27],101%
same,"viability, T/C",[28],108%
same,"viability, T/C",[5],86.7%
same,"viability, T/C",[6],73.8%
same,"viability, T/C",[7],61.4%
same,"viability, T/C",[8],47%
same,"viability, T/C",[29],97.1%
same,"viability, T/C",[30],87.3%
same,"viability, T/C",[9],85.4%
same,"viability, T/C",[10],84.2%
same,"viability, T/C",[11],66.3%
same,"viability, T/C",[12],45.2%
same,"viability, T/C",[31],104%
same,"viability, T/C",[32],90.8%
same,"viability, T/C",[13],76%
same,"viability, T/C",[14],83.8%
same,"viability, T/C",[15],54.3%
same,"viability, T/C",[16],50.8%
same,"viability, T/C",[33],80.2%
same,"viability, T/C",[34],79.2%
same,"viability, T/C",[17],95.2%
same,"viability, T/C",[18],72.6%
same,"viability, T/C",[19],39%
same,"viability, T/C",[20],32.8%
same,"viability, T/C",[35],75.9%
same,"viability, T/C",[36],73.7%
same,"viability, T/C",[21],90.8%
same,"viability, T/C",[22],57%
same,"viability, T/C",[23],51%
same,"viability, T/C",[24],38.4%
